Experimental data: patent US20240398843A1, “GLYCYRRHIZIN-BRANCHED POLYETHYLENE GLYCOL CONJUGATE FOR TREATING CANCER” (IUCF-HYU (INDUSTRY-UNIVERSITY COOPERATION FOUNDATION …, priority 2021, published 2024)

What was measured:
[1] = Dynamic light scattering (DLS) particle size, incl. shielding effect check in 10% FBS DW; format: physicochemical; conditions: for DLS size, first listed population / DLS size, second listed population / proportion of first listed population / proportion of second listed population: 10% FBS DW
Excerpt: When bPEG was conjugated, a stabilized nano size of approximately 300 nm was observed (FIG. 6).

red blood cells = assay: In vitro blood hemolysis; conditions: 0.2 to 1 mg/mL, 37° C., 1 hour
Procedure: 1 to 2 mL of blood was put into a 2 mL tube, filled with PBS, and centrifuged at 3,000 rpm for 2 minutes. The supernatant was removed, the vial was filled again with PBS, and centrifuged, and this process was repeated 2 to 3 times. 20 μL of a red blood pellet was dispensed into a 1.5 mL tube. DW, for example, 80% DW/PBS, 60% DW/PBS, 40% DW/PBS, 20% DW/PBS, or PBS was added to a control without separate material treatment, and the volumes was adjusted to 1.5 mL. In the experimental group, 1 mL of a bPEG-GL (3.6 mg/mL, 2.88 mg/mL, 2.16 mg/mL, 1.44 mg/mL, 0.72 mg/mL; GL equivalent concentration) solution was added to each tube.
The tubes were left in a 37° C. water bath for 1 hour and then centrifuged at 800 rpm for 5 minutes.

HepG2 cells [2] = assay: Wound healing assay; format: cell-based; conditions: HepG2, 500 μg/mL GL or GL equivalent, 24-hour culture
Procedure: HepG2 cells were seeded in a 6-well plate at 3×10^5 cells/well and cultured until 100% confluence. When the well was filled with cells, a wound was made by drawing a line in the center of the well using a 200 μL micropipette tip. The cells were washed with PBS, and treated with each of 500 μg/mL of GL, 500 μg/mL of bPEG-GL, which is a GL equivalent concentration, and a bPEG solution at the same amount of bPEG that dissolved in 500 μg/mL of bPEG-GL. After 24-hour culture, the width of the wound was confirmed. […] The cell migration rate was calculated according to Equation 1.
Rate of cell migration(RM)=(Wi−Wf)/t [Equation 1] • (Wi=initial wound width, Wf=final wound width, t=duration of migration)

HepG2 cells [3] = assay: Cell cycle arrest assay (PI, FACS); format: cell-based; conditions: 24 hours
Procedure: HepG2 cells were seeded in a 6-well plate at 4×10^5 cells/well and cultured (3 wells for each treated group). The cells were classified into a control (con; untreated group), GL-treated groups (250 and 500 μg/mL), bPEG-GL-treated groups (GL equi 250 and 500 μg/mL), and a bPEG (GL equi 500 μg/mL)-treated group, treated with corresponding materials, and cultured for 24 hours. After the cells were recovered and counted, 1×10^6 cells were obtained for each experimental group. The cells were washed with PBS and fixed with 70% ethanol (cell membrane disruption). The cells were treated with 50 μL of ribonuclease A (100 μg/mL) and 200 μL of propidium iodide (PI; 50 μg/mL). The cells were washed and suspended in 500 μL of PBS, and then FACS was performed.

HepG2 cells [4] = assay: Apoptosis assay (annexin V/PI, FACS); format: cell-based; conditions: 24 hours
Procedure: HepG2 cells were seeded in a 60 mm well plate at 2×10^5 cells/well and cultured (3 wells for each treatment group). The cells were classified as follows, treated with corresponding materials, and cultured for 24 hours: Control (con; untreated group), GL-treated groups (250, 500, and 1,000 μg/mL), bPEG-GL-treated groups (900, 1,800, and 3,600 μg/mL; GL equivalent concentrations of 250, 500, and 1,000 μg/mL), and bPEG-treated groups (1,300 and 2,600 μg/mL; bPEG-GL equivalent concentrations of 1,800 and 3,600 μg/mL).
After the culture, the medium was aspirated to remove the treated material, and the cells were washed twice with a cell-staining buffer. After the cells were recovered and counted, 5×10^5 cells were obtained for each experimental group. The cell culture solution was centrifuged to remove the supernatant, and then the cells were suspended in 100 μL of annexin V-binding buffer. The cell suspension was transferred to an FACS tube, and 5 μL of annexin V and 10 μL of PI solution were added. Subsequently, the FACS tube was left in a dark room at room temperature for 15 minutes. 400 μL of PBS was added to each FACS tube and analyzed by FACS in appropriate settings.

[5] = In vivo distribution (organ fluorescence, FOBI); conditions: FITC-labelled, tail vein, C57BL mouse
Procedure: Each of GL-FITC and bPEG-GL-FITC was dissolved in 1.5 mL of PBS at a concentration of 125 μg/mL based on GL. 100 μL each of the GL-FITC and bPEG-GL-FITC solutions was injected into the tail vein of a C57BL mouse. When a preset time (10 min, 30 min, 3 hr, 6 hr, and 24 hr) passed, the mice were sacrificed, organs were removed, and then fluorescence images were confirmed using FOBI.

[6] = In vivo pharmacokinetics (plasma, HPLC); conditions: intravenous, mouse, tail vein, 5 mg/kg GL
Procedure: 5 mg/kg of GL or 18 mg/kg of bPEG-GL (a GL equivalent amount of the GL-administered group) was injected into the tail vein of a mouse. The mouse was sacrificed at a designated time point after injection and blood was collected through cardiac puncture. The blood collection times were as follows: 1, 3, 5, 10, 30, 60, 120, 150, 360, 720, 1080, and 1440 min (n=4 at each time). The collected blood was centrifuged at 3000 rpm and 4° C. for 20 minutes. Only the plasma, which is the supernatant, was recovered, and 50 μL of the plasma and 100 μL of methyl alcohol (HPLC grade) were mixed and vortexed for 10 minutes. Afterward, the resulting product was centrifuged at 10000 g for 10 minutes. 100 μL of the supernatant was mixed with 900 μL of a mobile phase, and the resulting mixture was filtered using a 0.45 μm syringe filter.
The mobile phase consisted of methanol, acetonitrile, water, and acetic acid in a ratio of 55:23.7:19.2:0.68. The standard curve required for HPLC analysis was prepared as follows: each of 1 mg of GL and 1.8 mg of bPEG-GL was dissolved in 1 mL of the mouse serum. […] HPLC was performed on the blood samples and various concentrations of the GL/serum solutions using a C8 reverse column: flow rate: 1 mL/min; column temperature: 35° C.; UV absorbance: 251 nm; and sample injection amount: 20 μL.

With `CC1(C)[C@@H](O[C@H]2O[C@H](C(=O)O)[C@@H](O)[C@H](O)[C@H]2O[C@@H]2O[C@H](C(=O)O)[C@@H](O)[C@H](O)[C@H]2O)CC[C@]2(C)[C@H]3C(=O)C=C4[C@@H]5C[C@@](C)(C(=O)O)CC[C@]5(C)CC[C@@]4(C)[C@]3(C)CC[C@@H]12` [GL, Glycyrrhizin] the “size by dynamic light scattering particle size analyzer” value [1] was 50 nm, the “DLS size, first listed population” value ([1]; 30 min) was 159.7 nm and the “DLS size, second listed population” value ([1]; 30 min) was 10.38 nm. For the same molecule, the “proportion of first listed population” value ([1]; 30 min) was 75.50%, the “proportion of second listed population” value ([1]; 30 min) was 24.15% and the “DLS size, first listed population” value ([1]; 1 h) was 54.5 nm. The “DLS size, second listed population” value ([1]; 1 h) was 295.03 nm, the “proportion of first listed population” value ([1]; 1 h) was 47.83% and the “proportion of second listed population” value ([1]; 1 h) was 31.06%. The “size of newly observed particles” value ([1]; DW with 10% FBS, after 1 hour) was “approximately 300 nm”, the “toxicity to blood cells (hemolysis)” value (red blood cells) was “did not exhibit toxicity to blood cells” and the “width of wound / cell migration” value (HepG2 cells [2]) was “inhibitory effect on cell migration”. For the same molecule, the “cell cycle phase compared to control” value (HepG2 cells [3]; HepG2, 250 and 500 μg/mL (GL equivalent)) was “cell cycles remained in the G0/G1 phase compared to the control”, the “concentration dependence of cell cycle arrest” value (HepG2 cells [3]; HepG2, 500 vs 250 μg/mL) was “higher cell cycle arrest effects at 500 μg/mL, compared to that at 250 μg/mL” and the “proportion of apoptotic cells” value (HepG2 cells [4]; HepG2, GL equivalent concentration of 500 μg/mL) was 9.63%. The “proportion of apoptotic cells” value (HepG2 cells [4]; HepG2, GL equivalent concentration of 1 mg/mL) was 10.86%, the organ fluorescence ([5]; 10 minutes after injection) was “fluorescence was visible in the liver and kidney” and the organ fluorescence ([5]; later time points up to 24 hr) was “no fluorescence was observed in the corresponding organs at later time points”. It also gave a half-life [6] of about 4 min.
